Measurements published in patent US9133201B2, “Inhibitors of Bruton's tyrosine kinase” (Pharmacyclics, Inc., priority 2006, dated 2015).

Experiments:
[1] = biological target: Btk (Homo sapiens (Human), UniProt Q06187); test: Btk acellular kinase assay (TR-FRET)
[2] = tested on: DHL-6 cells; test: Growth of DHL-6 cells (Alamar Blue); assay type: cell-based; conditions: 24 h or 48 h treatment

Sequence of Btk (Q06187 whole entry): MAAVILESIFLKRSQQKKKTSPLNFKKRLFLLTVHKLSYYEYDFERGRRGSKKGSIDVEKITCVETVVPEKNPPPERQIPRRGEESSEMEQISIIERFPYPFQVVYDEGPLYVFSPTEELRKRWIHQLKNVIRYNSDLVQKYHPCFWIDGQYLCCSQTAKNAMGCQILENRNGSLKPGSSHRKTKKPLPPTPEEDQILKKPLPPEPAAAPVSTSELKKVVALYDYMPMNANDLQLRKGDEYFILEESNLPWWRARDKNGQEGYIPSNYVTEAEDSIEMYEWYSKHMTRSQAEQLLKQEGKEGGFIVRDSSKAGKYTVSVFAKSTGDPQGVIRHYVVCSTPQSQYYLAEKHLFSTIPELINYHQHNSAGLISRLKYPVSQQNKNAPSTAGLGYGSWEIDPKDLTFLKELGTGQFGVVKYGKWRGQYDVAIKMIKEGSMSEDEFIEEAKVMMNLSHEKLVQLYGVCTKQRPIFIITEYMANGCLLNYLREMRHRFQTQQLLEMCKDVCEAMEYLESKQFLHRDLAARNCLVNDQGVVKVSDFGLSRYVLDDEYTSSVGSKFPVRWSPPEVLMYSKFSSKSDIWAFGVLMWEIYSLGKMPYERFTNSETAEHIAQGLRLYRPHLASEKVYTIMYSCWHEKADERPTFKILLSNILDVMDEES

Row | fold less potent than compound 4 ([1]; Btk potency) [fold] | IC50 ([1]; read-out: Btk IC50, acellular TR-FRET kinase assay, [ATP]=Km) [nM] | SMILES | growth of DHL-6 cells [2]
1 | 28 | – | C/C=C/C(=O)N1CCCC(n2nc(-c3ccc(Oc4ccccc4)cc3)c3c(N)ncnc32)C1 (stereo not drawn) [Compound 5, (E)-1-(3-(4-amino-3-(4-phenoxyphenyl)-1H-pyrazolo[3,4-d]pyrimidin-1-yl)piperidin-1-yl)but-2-en-1-one] | –
2 | – | 2.5 | CN(C)C/C=C/C(=O)N1CCC[C@@H](n2nc(-c3ccc(Oc4ccccc4)cc3)c3c(N)ncnc32)C1 [Compound 15, (E)-1-(3-(4-amino-3-(4-phenoxyphenyl)-1H-pyrazolo[3,4-d]pyrimidin-1-yl)piperidin-1-yl)-4-(dimethylamino)but-2-en-1-one] | inhibit growth
